Assay results published in the NIST ThermoML archive (doi:10.1021/je050261u).

Assay: xn = mol fraction of the nth substance listed
Details: Liquid, Vibrating tube method

CCCCCCC [heptane] + CCO
mass density [kg/m3]
Details	x2 = 0	x2 = 0.125	x2 = 0.25	x2 = 0.375	x2 = 0.5	x2 = 0.625	x2 = 0.75	x2 = 0.875
293.15 K, 100 kPa	683.9	688.1	694.5	701.9	711.2	722.6	737.9	758.9
293.15 K, 5000 kPa	688.2	692.5	699	706.4	715.7	727.1	742.3	763.2
293.15 K, 10000 kPa	692.5	696.8	703.3	710.9	719.9	731.4	746.6	767.4
293.15 K, 15000 kPa	696.5	701	707.3	714.9	724	735.4	750.7	771.4
293.15 K, 20000 kPa	700.5	704.9	711.3	718.9	728	739.4	754.6	775.3
293.15 K, 25000 kPa	704.1	708.5	714.9	722.4	731.6	743	758.3	778.9
293.15 K, 30000 kPa	707.5	712	718.4	725.9	735.1	746.5	761.7	782.3
293.15 K, 35000 kPa	710.8	715.4	721.7	729.3	738.5	749.9	765.1	785.6
293.15 K, 40000 kPa	714	718.4	725	732.5	741.7	753.1	768.4	788.9
293.15 K, 45000 kPa	716.9	721.5	728	735.5	744.9	756.2	771.4	791.9
293.15 K, 50000 kPa	719.8	724.5	731.1	738.5	747.9	759.3	774.5	794.9
293.15 K, 55000 kPa	722.7	727.4	733.9	741.4	750.8	762.2	777.4	797.8
293.15 K, 60000 kPa	725.4	730.2	736.7	744.2	753.6	765	780.2	800.6
293.15 K, 65000 kPa	728	732.9	739.4	746.9	756.3	767.8	782.9	803.4
303.15 K, 100 kPa	675.1	679.8	685.3	692.7	701.9	713.4	728.9	749.9
303.15 K, 5000 kPa	680	684.8	690.2	697.6	706.9	718.3	733.7	754.6
303.15 K, 10000 kPa	684.4	689.3	694.8	702.1	711.4	722.8	738.2	759
303.15 K, 15000 kPa	688.9	693.8	699.3	706.8	715.9	727.4	742.7	763.3
303.15 K, 20000 kPa	692.8	697.8	703.4	710.7	720	731.4	746.7	767.3
303.15 K, 25000 kPa	696.8	701.7	707.3	714.7	723.9	735.4	750.6	771.1
303.15 K, 30000 kPa	700.3	705.3	710.9	718.3	727.5	739	754.2	774.7
303.15 K, 35000 kPa	703.7	708.9	714.4	721.8	731.1	742.6	757.7	778.2
303.15 K, 40000 kPa	707.1	712.3	717.9	725.3	734.5	746	761.2	781.5
303.15 K, 45000 kPa	710.2	715.4	721.1	728.5	737.7	749.2	764.4	784.8
303.15 K, 50000 kPa	713.4	718.5	724.2	731.6	740.8	752.2	767.5	787.9
303.15 K, 55000 kPa	716.4	721.4	727.3	734.7	743.9	755.3	770.6	791
303.15 K, 60000 kPa	719.2	724.4	730.2	737.5	746.9	758.3	773.5	793.9
303.15 K, 65000 kPa	722	727.2	733	740.4	749.7	761.1	776.4	796.7
313.15 K, 100 kPa	666.4	670.7	676	683.3	692.6	704.2	719.8	740.8
313.15 K, 5000 kPa	671.6	676.1	681.4	688.7	697.9	709.5	724.9	745.8
313.15 K, 10000 kPa	676.5	681.1	686.4	693.6	702.9	714.3	729.8	750.5
313.15 K, 15000 kPa	681	685.6	690.9	698.2	707.5	718.9	734.3	755
313.15 K, 20000 kPa	685.3	689.9	695.3	702.6	711.9	723.3	738.5	759.1
313.15 K, 25000 kPa	689.4	694	699.4	706.7	716	727.4	742.6	763.1
313.15 K, 30000 kPa	693.3	697.9	703.4	710.5	719.9	731.3	746.5	766.9
